Consider one molecule from patent publication US20250090541A1, “Methods for Treating Neurodegenerative Disorders” (Praetego Inc, priority 2022, published 2025).

Type in all cases: in vivo
The nature of data set [1]: Mortality and apparent toxicity, 20 weeks in 3×Tg mice. To be noted: 1 and 5 mg/kg in drinking water. Here is the method:
(§1) Female and male 3×Tg mice (MMRRC #034830) were treated daily for 20 weeks with PTG-670 trihydrochloride at 1 and 5 mg/kg in drinking water starting at 19 weeks of age (˜5 months old) (just before cognitive deficits onset).
• 1—Control (B6129SF2/J Jax 101045)), N=7 male, N=7 female, • 2—3×Tg, N=7 male, N=7 female, • 3—3×Tg+PTG-670 1 mg/kg drinking water, N=7 male, N=7 female, • 4—3×Tg+PTG-670 5 mg/kg drinking water, N=7 male, N=7 female.
No mice died during the course of the study.

Data set [2] relates to 3×Tg mice. As to the kind of experiment: Tactile response (manual von Frey filaments), 3×Tg mice. The following applies: 3×Tg mice did not develop tactile allodynia. Here is the method:
as §1
(§2) Tactile and thermal responses were assessed at 5 and 11 weeks. Motor nerve conduction velocity (NCV) was measured at 8, 12 and 20 weeks after treatment. Learning and memory were assessed using the Barnes maze test and the object recognition test at 6, 12, and 18 weeks of treatment. Corneal nerves were imaged by corneal confocal microscopy (CCM) at week 5, 11 and 17. Data represent male and female results combined, unless specified, mean±sem.

Data set [3] has as its system 3×Tg mice. Nature of the data set: Thermal response to heat stimuli, 3×Tg mice. The following applies: 3×Tg mice did not develop significant hypoalgesia. Here is the method:
as §1, §2

The subject of data set [4] is 3×Tg mice. As to the kind of experiment: Motor nerve conduction velocity (NCV), 3×Tg mice. The following applies: male 3×Tg mice, 20 weeks time point. Here is the method: as §1, §2
Male 3×Tg mice develop significant (p<0.05) nerve conduction velocity slowing by 9 months of age (20 weeks time point) (data not shown). The slowing of NCV was prevented by treatment with PTG-670 at both 1 and 5 mg/kg in drinking water.

Data set [5] relates to 3×Tg mice. As to the kind of experiment: Barnes maze learning abilities, 3×Tg mice. Here is the method: as §1, §2
Learning abilities assessed using the Barnes maze were impaired in 3×Tg mice in both male and female around 6-7 months, conform with the literature (Stover et al., 2015).

Data set [6] concerns 3×Tg mice. As to the kind of experiment: Barnes maze long-term memory, 3×Tg mice. Here is the method: as §1, §2
Using the Barnes maze test, long-term memory was assessed between week 12 and 18 of treatment.

Data set [7] deals with 3×Tg mice. Nature of the data set: Object Recognition test, 3×Tg mice. The following applies: for short term episodic memory deficits in Object recognition test: 5 mg/kg. Here is the method: as §1, §2
Data set [8] has as its system 4-hydroxynonal (4-HNE). As to the kind of experiment: Lipid peroxidation, 4-HNE Oxiselect Elisa in hippocampus homogenates, 3×Tg mice. To be noted: 5 mg/kg. Here is the method:
as §1
Lipid peroxidation was assessed using the 4-Hydroxynonal (4-HNE) Oxiselect Elisa in hippocampus homogenates.

For data set [9], the system named is Drebrin. As to the kind of experiment: Western blot of hippocampus, 3×Tg mice: Drebrin. Here is the method:
as §1
(§3) Mouse Hippocampus were processed for Western blotting analysis of Drebrin (actin binding protein in dendritic spines, role in neuronal growth, a decrease is a contributing factor in the pathogenesis of memory disturbance), PSD95 (a post-synaptic protein, role in the regulation of excitatory synapse maturity), and NeuN (neuronal nuclear antigen, biomarker for neurons, decrease=neuronal loss) (FIG. 12). The reduced drebrin levels in the hippocampus of 3×Tg mice was ameliorated by 20 weeks of treatment with PTG-670 at 5 mg/kg in drinking water only for female mice. Similarly, levels of PSD95 protein tend to decrease in 3×Tg mice and to be ameliorated by 5 mg/kg PTG670.

Data set [10] has as its system PSD95. As to the kind of experiment: Western blot of hippocampus, 3×Tg mice: PSD95. Here is the method: as §1, §3
In general terms: In western blotting, separated proteins are transferred to a membrane and probed.

Data set [11] concerns NeuN. Nature of the data set: Western blot of hippocampus, 3×Tg mice: NeuN. Here is the method: as §1, §3

As to `Cc1ncc(CN2CCCCCC2)c(-c2ncc[nH]2)c1O` [PTG-670, 5-(azepan-1-ylmethyl)-4-(1H-imidazol-2-yl)-2-methylpyridin-3-ol], the apparent toxicity entry in data set [1] is listed as “No apparent toxicity was observed”. For the same molecule, in [2], the “responses to von Frey filaments” value is “did not affect mice responses to von Frey filaments”. Moreover, the “responses to heat stimuli” value in data set [3] is “did not affect the 3×Tg mice responses to heat stimuli”. Also, the “slowing of NCV” value in data set [4] (1 mg/kg in drinking water) and in [4] (5 mg/kg in drinking water) was “prevented” throughout. For the same molecule, the “learning abilities in Barnes maze” value in data set [5] (female 3×Tg mice, 1 mg/kg for 18 weeks) was “significantly improved learning abilities to level similar to control”. The “learning deficits in Barnes maze” value in [5] (male 3×Tg mice) is “did not improve learning deficits”. Besides, in [6] (female 3×Tg mice, 1 mg/kg, by week 18 of treatment), the “long-term memory impairment in Barnes maze” value is recorded as “significantly (p<0.05) prevented”. The “memory abilities in Barnes maze” value in [6] (male 3×TG mice) is reported as “No difference in memory abilities or effect”. The “short term episodic memory deficits in Object recognition test” value in data set [7] (after 6 weeks of treatment) and in data set [7] (after 18 weeks of treatment) was “significantly (p<0.05) ameliorated” each time. In data set [7] (FIG. 10 legend, 6 to 18 weeks of treatment), the “short-term episodic memory (recognition index)” value is given as “alleviated”. Besides, the “4-HNE levels in hippocampus” value in [8] is reported as “tend to reduce HNE levels”. The “reduced drebrin levels in hippocampus” value in data set [9] (female mice only, 5 mg/kg in drinking water, 20 weeks) is reported as “ameliorated”. For the same molecule, the Drebrin in hippocampus result in data set [9] (male 3×Tg mice) is given as “No differences were observed”. Further, in [10] (5 mg/kg, tendency), the “levels of PSD95 protein in hippocampus” value is “ameliorated”. The PSD95 in hippocampus result in [10] (male 3×Tg mice) was “No differences were observed”. For the same molecule, the “neuronal loss (NeuN) in hippocampus” value in data set [11] (female mice only, 5 mg/kg) is given as “significantly (p<0.05) elevated”. Besides, the NeuN in hippocampus result in data set [11] (male 3×Tg mice) is on record as “No differences were observed”.
